Laboratory results: PubChem BioAssay (NCI)
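Tested at 5 concentrations; 48 h exposure; 96-well plates; endpoints linearly interpolated, else capped at highest concentration. GI50 marks 50% less growth. Definition used: TGI = concentration required for complete inhibition of growth.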

What was measured:
Test in all cases: NCI anticancer screen, dose series, 48 h
SNB-75 CNS = test system: SNB-75 CNS
HCT-15 colon = test system: HCT-15 colon
M14 melanoma = test system: M14 melanoma
UACC-257 melanoma = test system: UACC-257 melanoma
A549 NSCLC = test system: A549 NSCLC
HCC-2998 colon = test system: HCC-2998 colon
SK-OV-3 ovarian = test system: SK-OV-3 ovarian
BT-549 breast = test system: BT-549 breast

Row | SMILES | GI50 (SNB-75 CNS) | TGI (SNB-75 CNS) | GI50 (HCT-15 colon) | TGI (HCT-15 colon) | GI50 (M14 melanoma) | TGI (M14 melanoma) | GI50 (UACC-257 melanoma) | TGI (UACC-257 melanoma) | GI50 (A549 NSCLC) | TGI (A549 NSCLC) | GI50 (HCC-2998 colon) | TGI (HCC-2998 colon) | GI50 (SK-OV-3 ovarian) | TGI (SK-OV-3 ovarian) | GI50 (BT-549 breast) | TGI (BT-549 breast)
1 | CSc1nc2c(c(=O)n1C)C(c1ccccc1)C1=C(N2)/C(=C/c2ccccc2)CCC1 (stereo not drawn) | 11.3 µM | 29.7 µM | 4.1 µM | > 100 µM | 6.56 µM | > 100 µM | 6.63 µM | > 100 µM | > 100 µM | > 100 µM | > 100 µM | > 100 µM | 25.1 µM | 78.7 µM | 11.9 µM | > 100 µM
2 | C=CCSC(C)=O |  | > 100 µM |  | > 100 µM |  | > 100 µM |  |  |  | > 100 µM |  | > 100 µM |  | > 100 µM |  | > 100 µM
3 | COc1ccc2nc3ccccc3c(NCCNCC(C)O)c2c1 (stereo not drawn) | 0.781 µM | 2.59 µM | 0.461 µM | 10.6 µM | 0.356 µM | 1.79 µM | 0.81 µM | 3.84 µM |  |  | 0.519 µM | 2.37 µM | 0.612 µM | 9.12 µM | 1.61 µM | 5.73 µM
4 | COc1ccc(-c2c(-c3ccc(C#N)c(F)c3)nc(N3CCC(N)CC3)n(C)c2=O)cc1F | 10.9 µM | 27.7 µM | 21.6 µM | 99.2 µM | 17.5 µM | 34.9 µM | 13.6 µM | 29.2 µM | 29.8 µM | > 100 µM | 13 µM | 26.7 µM | 15.8 µM | 45.8 µM | 14.6 µM | 30.6 µM
